How the values were obtained:
[1] = tested on: visceral pain in response to colorectal distension; experiment: Rat model of visceral pain perception (colorectal distension, AWR score); format: in vivo, Rats (male, Wistar)
Experimental: A rat model of visceral pain perception, a pre-clinical model of irritable bowel syndrome, was used in the following example. Rats (male, Wistar, 200-250 g, obtained from Charles River, Monza, Italy), were housed in plastic cages and maintained under controlled conditions with 12-hours light/dark cycle with lights on at 7.00 AM. Tap water and standard laboratory chow were freely available. Before experiments, rats were individually trained by spending 2-3 hours per day in a plexiglass cage for 2-3 days. It allowed them to adjust to a movement-restriction environment. Food was withheld for 12 hours before colorectal distension (CRD) recording were performed. Experiments were performed in awake rats and were conducted in a blind manner in that the observer was not aware of the identity of drug administered to each animal.
In the testing day, rats were sedated with ether inhalation and a 2 cm long latex balloon was inserted intrarectally 2 cm from the anal verge and fixed at the base of the tail. The balloon was connected via a double-barreled cannula to a pressure transducer to continuously monitoring the rectal pressure by a computer (PowerLab PC, A.D. Instruments, Milford, Mass., USA) and to a syringe for inflation/deflation of the balloon. The rats were then housed in a small cage (20×8×8 cm) on an elevated Plexiglas™ platform and allowed to wake up and adapt for 1 hour. After recovery from sedation, animals underwent the CRD procedure and behavioral responses were tested. The night before the experiments, the balloons were inflated and left overnight so the latex stretched and the balloons became compliant.
CRD of 20 seconds, performed every 5 minutes, was applied in increment of 0.4 ml starting from 0.4 ml up to 1.6 ml water. To achieve an accurate measurement of the colonic parameters and perception, the distensions were repeated twice for each intensity and data for each animal were averaged for analysis. Each animal underwent a double set of CRD. Twenty minutes after the first sequence of CRD (0.4 mL-1.6 ml water), drugs were administered intraperitoneally (i.p.) and a second set of CRD was performed. Behavioral responses during the first and the second set of CRD were assessed and compared.
Behavioral response to CRD was assessed by measuring the abdominal withdrawal reflex (AWR) using a semiquantitative score (1).
The effects of mesalamine and Compound XXXV on colonic compliance and sensitivity were determined using a total of 8 fasting rats. To investigate whether the administration of mesalamine and Compound XXXV could revert pain induced by CRD, after the first sequence of CRD, […], after which a second set of CRD was repeated.
To determine the effect of mesalamine or Compound XXXV on colonic smooth muscle, the compliance of the colo-rectum during CRD was obtained from intracolo-rectal volume and pressure and expressed as mL/mmHg.
All data are presented as the mean±SEM, with sample sizes of 4 rats/group; statistical comparison of paired data was performed by the Wilcoxon signed rank test. An associated probability (p value) of less that 5% was considered significant.
A rat model of visceral pain perception as described above was used to compare pain perception scores for both Compound XXXV and Compound XXVII with or without glibenclamide, an inhibitor of ATP-sensitive K^+ (KATP) channels.

IL-10 mRNA = experiment: Colonic mRNA expression by RT-PCR in TNBS-induced colitis; format: in vivo, mice; conditions: dose equimolar to mesalamine 50 mg/kg; normalized to GAPDH, ratio to healthy controls
Experimental: (§1) The same model was used as described above. In this example, the effects of mesalamine (50 mg/kg) were compared to those of equimolar doses of Compound XXXV. In addition to measuring the severity of colitis by measuring disease activity score and MPO activity, tissues were processed for measurement of a number of genes for inflammatory cytokines and other mediators.
(§2) In particular, mRNA expression in mice of tumour necrosis factor-alpha (TNF-α), interferon gamma (IFN-[…]γ), colonic interleukin (IL)-1, IL-2, IL-10, IL-12 p40, RANTES, cyclooxygenase (COX)-1, COX-2, constitutive endothelial nitric oxide synthase (eNOS), and inducible NOS (iNOS) was measured as described in Wallace et al. (1999) Gastroenterology 117: 557-566, incorporated herein by reference.
(§3) Briefly, reverse transcription-polymerase chain reaction (RT-PCR) was used to detect and quantify mRNA of the particular cytokine/chemokine/enzyme. Glyceraldehyde-3-phosphate dehydrogenase (GAPDH) was used as the “housekeeping gene” for mRNA expression (i.e., as an internal control). For each sample, the ratio of the amplification of the target gene to the amplification of GAPDH (expression of each is measured by performing densitometry on gels) was obtained. Comparisons were then made between the relative amplification (expression) of the target gene in tissues for the treatment groups in comparison to the expression in tissues from healthy controls. Thus, the data shown in FIGS. 7-14 represent the relative expression of the target gene (normalized to GAPDH expression) as a ratio to the expression in healthy controls.

COX-1 mRNA = experiment: as above; format: in vivo, mice; conditions: dose equimolar to mesalamine 50 mg/kg; FIG. 13
Experimental: as §1, §2, §3

iNOS mRNA = experiment: as above; format: in vivo, mice; conditions: dose equimolar to mesalamine 50 mg/kg; FIG. 14
Experimental: as §1, §2, §3

eNOS mRNA = experiment: as above; format: in vivo, mice; conditions: dose equimolar to mesalamine 50 mg/kg; FIG. 14
Experimental: as §1, §2, §3

COX-2 mRNA = experiment: as above; format: in vivo, mice; conditions: dose equimolar to mesalamine 50 mg/kg; FIG. 13
Experimental: as §1, §2, §3

[2] = tested on: mRNA for several pro-inflammatory cytokines and chemokines; experiment: as above; format: in vivo, mice; conditions: dose equimolar to mesalamine 50 mg/kg; normalized to GAPDH, ratio to healthy controls
Experimental: as §1, §2, §3

Nc1ccc(O)c(C(=O)Oc2ccc(-c3cc(=S)ss3)cc2)c1 [Compound XXXV, 5-Amino-2-hydroxy-benzoic acid 4-(5-thioxo-5H-[1,2]dithiol-3-yl)-phenyl ester]
intrarectal pressure ([1]; 100 mg/kg i.p., FIG. 16(b)): successfully reduced intrarectal pressure
perception score (visceral pain in response to colorectal distension) ([1]; 100 mg/kg i.p., second set of CRD vs first, FIG. 15): more effective than mesalamine (and vehicle) in reducing visceral pain
pain perception score after glibenclamide pretreatment ([1]; 0.8 mL colorectal distention, 100 mg/kg, glibenclamide 10 mg/kg i.p. 30 min before, FIG. 17): reversed by pretreatment with glibenclamide
pain perception score ([1]; 0.8 mL colorectal distention, 100 mg/kg, vs vehicle-treated group, FIG. 17): significantly reduced the pain perception
pain perception ([1]; equimolar doses: mesalamine 50, Compound XXXV 130, ADT-OH 80, Compound XXVII 100, 4-HTB 50 mg/kg, vs vehicle-treated group): significantly reduced pain perception
expression of IL-10 mRNA (IL-10 mRNA): did not suppress expression of IL-10 mRNA
COX-1 mRNA expression (COX-1 mRNA): suppressed
iNOS mRNA expression (iNOS mRNA): suppressed
eNOS mRNA expression (eNOS mRNA): suppressed
COX-2 mRNA expression (COX-2 mRNA): suppressed
expression of mRNA for pro-inflammatory cytokines and chemokines [2]: suppressed expression of mRNA for several pro-inflammatory cytokines and chemokines
